Activity calls are given as the source filed them. The calls are words filed in the database; no cut-off is given here. Bridge positions count the residues as written; N and C are the ends. Peptide text beside a SMILES is read from it.
Experiments:
[1] = target: T1, Albumin (Homo sapiens, UniProt P02768); test: Binding affinity to human serum albumin assessed as remaining parent compound at 3 mM measured up to 24 hrs by RP-HPLC analysis; assay type: ADME, cell-free; details: read-out: Activity
[2] = test system: Staphylococcus aureus; test: Antibacterial activity against methicillin-resistant Staphylococcus aureus assessed as reduction in microbial growth at 0.024 to 0.113 mg/ml after 270 mins by microdilution assay; assay type: functional, organism-based; details: dose 0.024-0.113 mg/ml
[3] = test system: Streptococcus pyogenes; test: Antibacterial activity against Streptococcus pyogenes assessed as reduction in microbial growth at 0.024 to 0.113 mg/ml after 270 mins by microdilution assay; assay type: functional, organism-based; details: dose 0.024-0.113 mg/ml
[4] = test system: Escherichia coli; test: Antibacterial activity against Escherichia coli assessed as reduction in microbial growth at 0.024 to 0.113 mg/ml after 270 mins by microdilution assay; assay type: functional, organism-based; details: dose 0.024-0.113 mg/ml
[5] = test system: Pseudomonas aeruginosa; test: Antibacterial activity against Pseudomonas aeruginosa assessed as reduction in microbial growth at 0.024 to 0.113 mg/ml after 270 mins by microdilution assay; assay type: functional, organism-based; details: dose 0.024-0.113 mg/ml
[6] = test system: Klebsiella pneumoniae; test: Antibacterial activity against Klebsiella pneumoniae assessed as reduction in microbial growth at 0.024 to 0.113 mg/ml after 270 mins by microdilution assay; assay type: functional, organism-based; details: dose 0.024-0.113 mg/ml
[7] = test system: Serratia marcescens; test: Antibacterial activity against Serratia marcescens assessed as reduction in microbial growth at 0.024 to 0.113 mg/ml after 270 mins by microdilution assay; assay type: functional, organism-based; details: dose 0.024-0.113 mg/ml
[8] = test system: Streptococcus pneumoniae; test: Antibacterial activity against Streptococcus pneumoniae assessed as reduction in microbial growth at 0.024 to 0.113 mg/ml after 270 mins by microdilution assay; assay type: functional, organism-based; details: dose 0.024-0.113 mg/ml
[9] = test system: Enterococcus faecalis; test: Antibacterial activity against Enterococcus faecalis assessed as reduction in microbial growth at 0.024 to 0.113 mg/ml after 270 mins by microdilution assay; assay type: functional, organism-based; details: dose 0.024-0.113 mg/ml
[10] = test system: Vibrio harveyi; test: Antibacterial activity against Vibrio harveyi assessed as reduction in microbial growth at 0.024 to 0.113 mg/ml after 270 mins by microdilution assay; assay type: functional, organism-based; details: dose 0.024-0.113 mg/ml
[11] = test system: Pseudoalteromonas shioyasakiensis; test: Antibacterial activity against Pseudoalteromonas […] assessed as reduction in microbial growth at 0.024 to 0.113 mg/ml after 270 mins by microdilution assay; assay type: functional; details: dose 0.024-0.113 mg/ml
[12] = test system: Vibrio mediterranei; test: Antibacterial activity against Vibrio shilonii assessed as reduction in microbial growth at 0.024 to 0.113 mg/ml after 270 mins by microdilution assay; assay type: functional; details: dose 0.024-0.113 mg/ml
[13] = test system: Tenacibaculum skagerrakense; test: Antibacterial activity against Tenacibaculum skagerrakense assessed as reduction in microbial growth at 0.024 to 0.113 mg/ml after 270 mins by microdilution assay; assay type: functional; details: dose 0.024-0.113 mg/ml
[14] = test system: Vibrio coralliilyticus; test: Antibacterial activity against Vibrio coralliilyticus assessed as reduction in microbial growth at 0.024 to 0.113 mg/ml after 270 mins by microdilution assay; assay type: functional; details: dose 0.024-0.113 mg/ml
[15] = test system: Alteromonas macleodii; test: Antibacterial activity against Alteromonas macleodii assessed as reduction in microbial growth at 0.024 to 0.113 mg/ml after 270 mins by microdilution assay; assay type: functional; details: dose 0.024-0.113 mg/ml
[16] = Cytotoxicity against human PBMC cells assessed as reduction in cell viability at 5 to 50 ug/ml measured up to 48 hrs by CellTox Green assay; assay type: cell-based; details: dose 5-50 µg/ml
[17] = test system: PBMC; test: Antiinflammatory activity against LPS-induced human PBMC cells assessed as reduction in TNF-alpha expression at 7.5 to 100 ug/ml by ELISA; assay type: functional, cell-based; details: dose 7.5-100 µg/ml
[18] = target: T1, Albumin; test: Binding affinity to albumin (unknown origin) at 3 mM measured up to 24 hrs by RP-HPLC analysis; assay type: ADME, cell-free; details: serum, 3000 µM

T1 sequence (P02768 whole entry): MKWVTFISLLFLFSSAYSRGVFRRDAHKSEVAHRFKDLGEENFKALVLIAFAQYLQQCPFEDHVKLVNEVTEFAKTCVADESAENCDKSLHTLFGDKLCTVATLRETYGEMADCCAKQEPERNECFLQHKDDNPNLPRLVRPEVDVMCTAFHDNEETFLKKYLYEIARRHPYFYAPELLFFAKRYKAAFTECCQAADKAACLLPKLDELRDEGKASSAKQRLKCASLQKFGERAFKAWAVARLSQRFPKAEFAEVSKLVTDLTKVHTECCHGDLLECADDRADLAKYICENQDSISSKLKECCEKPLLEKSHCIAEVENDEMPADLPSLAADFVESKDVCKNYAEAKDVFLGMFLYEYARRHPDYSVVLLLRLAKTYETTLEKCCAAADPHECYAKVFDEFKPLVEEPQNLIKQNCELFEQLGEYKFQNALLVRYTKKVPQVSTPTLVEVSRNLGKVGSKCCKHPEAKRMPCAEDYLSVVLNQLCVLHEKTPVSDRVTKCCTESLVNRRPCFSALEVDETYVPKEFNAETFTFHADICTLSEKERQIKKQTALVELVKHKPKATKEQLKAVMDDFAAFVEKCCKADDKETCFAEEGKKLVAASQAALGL

Compound	remaining at 24 h, 3000 µM [1] [%]	Activity [2]	Activity [3]	Activity [4]	Activity [5]	Activity [6]	Activity [7]	Activity [8]	Activity [9]	Activity [10]	Activity [11]	Activity [12]	Activity [13]	Activity [14]	Activity [15]	Activity [16]	Activity [17]	Activity [18]
CC[C@H](C)[C@H](NC(=O)[C@@H](NC(=O)[C@@H](N)Cc1ccccc1)[C@H](C)O)C(=O)N[C@@H](Cc1ccc(O)cc1)C(=O)N1CCC[C@H]1C(=O)NCC(=O)N[C@H]1CSSC[C@@H](C(=O)O)NC(=O)[C@H](Cc2ccccc2)NC(=O)[C@H](CC(C)C)NC(=O)CNC(=O)[C@H](Cc2c[nH]cn2)NC1=O	85																	
CC[C@H](C)[C@@H]1NC(=O)[C@H](CC(C)C)NC(=O)CNC(=O)[C@H](Cc2ccccc2)NC(=O)[C@@H]2CCCN2C(=O)[C@H]([C@@H](C)O)NC(=O)[C@H](Cc2ccc(O)cc2)NC(=O)[C@H](Cc2c[nH]cn2)NC(=O)[C@@H](NC(=O)CN)CSSC[C@@H](C(=O)N[C@@H](Cc2ccccc2)C(=O)O)NC1=O (H-GCHYTPFGLICF-OH; disulfide 2-11)	3	Active	Active	inactive	inactive	inactive	inactive	inactive	inactive	inactive	inactive	inactive	inactive	inactive	inactive	Non-Toxic	Active	Active

Reference: ChEMBL document CHEMBL4673278, “Identification and Characterization of a Peptide from the Stony Coral Heliofungia actiniformis” (J Nat Prod, 2020)
